Tested on: E. coli (ATCC 25922)
Assay: AATCC Test Method 100-2012 antibacterial activity of the treated textile, after 25 washes and 12 abrasion cycles, contact time 60 minutes
Format: cell-based
Details: for Log reduction of antimicrobial performance: 1% o.w.f; for Log reduction of antimicrobial performance in 100 GSM Polyester fabric / Log reduction of antimicrobial performance in 100 GSM cotton fabric / Log reduction of antimicrobial performance in 300 GSM Polyester fabric / Log reduction of antimicrobial performance in 300 GSM cotton fabric / Performance Test-Log reduction of antimicrobial performance: 2 min; for Performance Test-Log reduction of antimicrobial performance: pad process, single agent 5 gm/lit
Method: The antibacterial activity of the textile was tested in accordance with AATCC Test Method 100-2012. Prior to the test, the fabric was cut into coupons of 2×4 inches and washed separately 25 times, and exposed to 12 abrasion cycles, as per US EPA protocol 90072PA4 (described further below). The tests were made against E. coli (ATCC 25922). Contact time was 60 minutes, after inoculating with 10^8 CFU per coupon.

[1] = exhaust 80° C., 60 min, curing 180° C., dosage 0.1% o.w.f
[2] = exhaust 80° C., 60 min, curing 180° C., dosage 0.2% o.w.f
[3] = exhaust 80° C., 60 min, curing 180° C., dosage 0.5% o.w.f
[4] = exhaust 80° C., 60 min, curing 180° C., dosage 0.8% o.w.f
[5] = exhaust 80° C., 60 min, curing 180° C., dosage 1.0% o.w.f

## CCCCCCCCCCCCCCCCCC[N+](C)(C)CCC[Si](OC)(OC)OC [Organosilane, dimethyloctadecyl[3-(trimethoxysilyl)propyl] ammonium chloride]
Exhaust 60° C., solution dosage 1% o.w.f, process time 60 min
  Log reduction of antimicrobial performance of each active ingredient: 1.5 Log
Exhaust 60° C., solution dosage 1% o.w.f, process time 90 min
  Log reduction of antimicrobial performance of each active ingredient: 1.7 Log
Exhaust 60° C., solution dosage 1% o.w.f, process time 120 min
  Log reduction of antimicrobial performance of each active ingredient: 1.8 Log
Exhaust 60° C., solution dosage 1% o.w.f, process time 180 min
  Log reduction of antimicrobial performance of each active ingredient: 1.8 Log
Exhaust 60° C., solution dosage 1% o.w.f, process time 240 min
  Log reduction of antimicrobial performance of each active ingredient: 1.73 Log
Exhaust 80° C., 60 min, curing 170° C., curing dwell time 0.5 min
  Log reduction of antimicrobial performance: 0.3 Log
Exhaust 80° C., 60 min, curing 170° C., curing dwell time 1.0 min
  Log reduction of antimicrobial performance: 0.5 Log
Exhaust 80° C., 60 min, curing 170° C., curing dwell time 1.5 min
  Log reduction of antimicrobial performance: 0.6 Log
Exhaust 80° C., 60 min, curing 170° C., curing dwell time 2.0 min
  Log reduction of antimicrobial performance: 1.2 Log
Exhaust 80° C., 60 min, curing 170° C., curing dwell time 2.5 min
  Log reduction of antimicrobial performance: 1.2 Log
Exhaust 80° C., 60 min, curing 170° C., curing dwell time 3.0 min
  Log reduction of antimicrobial performance: 0.75 Log
Exhaust 80° C., 60 min, curing 180° C., curing dwell time 0.5 min
  Log reduction of antimicrobial performance: 1.5 Log
Exhaust 80° C., 60 min, curing 180° C., curing dwell time 1.0 min
  Log reduction of antimicrobial performance: 1.7 Log
Exhaust 80° C., 60 min, curing 180° C., curing dwell time 1.5 min
  Log reduction of antimicrobial performance: 1.8 Log
Exhaust 80° C., 60 min, curing 180° C., curing dwell time 2.0 min
  Log reduction of antimicrobial performance: 3.9 Log
Exhaust 80° C., 60 min, curing 180° C., curing dwell time 2.5 min
  Log reduction of antimicrobial performance: 3.8 Log
Exhaust 80° C., 60 min, curing 180° C., curing dwell time 3.0 min
  Log reduction of antimicrobial performance: 3.7 Log
Exhaust 80° C., 60 min, curing 190° C., curing dwell time 0.5 min
  Log reduction of antimicrobial performance: 0.6 Log
Exhaust 80° C., 60 min, curing 190° C., curing dwell time 1.0 min
  Log reduction of antimicrobial performance: 1.1 Log
Exhaust 80° C., 60 min, curing 190° C., curing dwell time 1.5 min
  Log reduction of antimicrobial performance: 1.5 Log
Exhaust 80° C., 60 min, curing 190° C., curing dwell time 2.0 min
  Log reduction of antimicrobial performance: 2.55 Log
Exhaust 80° C., 60 min, curing 190° C., curing dwell time 2.5 min
  Log reduction of antimicrobial performance: 2.46 Log
Exhaust 80° C., 60 min, curing 190° C., curing dwell time 3.0 min
  Log reduction of antimicrobial performance: 1.2 Log
Exhaust 80° C., 60 min, curing temperature 100 ° C.
  Log reduction of antimicrobial performance: 0.17 Log
Exhaust 80° C., 60 min, curing temperature 120 ° C.
  Log reduction of antimicrobial performance: 0.56 Log
Exhaust 80° C., 60 min, curing temperature 140 ° C.
  Log reduction of antimicrobial performance: 0.97 Log
Exhaust 80° C., 60 min, curing temperature 160 ° C.
  Log reduction of antimicrobial performance: 1.11 Log
Exhaust 80° C., 60 min, curing temperature 165 ° C.
  Log reduction of antimicrobial performance: 1.16 Log
Exhaust 80° C., 60 min, curing temperature 170 ° C.
  Log reduction of antimicrobial performance: 1.26 Log
Exhaust 80° C., 60 min, curing temperature 175 ° C.
  Log reduction of antimicrobial performance: 2.16 Log
Exhaust 80° C., 60 min, curing temperature 180 ° C.
  Log reduction of antimicrobial performance: 2.56 Log
Exhaust 80° C., 60 min, curing temperature 185 ° C.
  Log reduction of antimicrobial performance: 2.59 Log
Exhaust 80° C., 60 min, curing temperature 190 ° C.
  Log reduction of antimicrobial performance: 2.61 Log
Exhaust 80° C., 60 min, curing temperature 195 ° C.
  Log reduction of antimicrobial performance: 2.63 Log
[1]
  Log reduction of antimicrobial performance in 100 GSM Polyester fabric: 0.73 Log
  Log reduction of antimicrobial performance in 100 GSM cotton fabric: 0.81 Log
  Log reduction of antimicrobial performance in 300 GSM Polyester fabric: 0.75 Log
  Log reduction of antimicrobial performance in 300 GSM cotton fabric: 0.82 Log
[2]
  Log reduction of antimicrobial performance in 100 GSM Polyester fabric: 1.67 Log
  Log reduction of antimicrobial performance in 100 GSM cotton fabric: 1.67 Log
  Log reduction of antimicrobial performance in 300 GSM Polyester fabric: 1.65 Log
  Log reduction of antimicrobial performance in 300 GSM cotton fabric: 1.68 Log
[3]
  Log reduction of antimicrobial performance in 100 GSM Polyester fabric: 1.79 Log
  Log reduction of antimicrobial performance in 100 GSM cotton fabric: 1.83 Log
  Log reduction of antimicrobial performance in 300 GSM Polyester fabric: 1.80 Log
  Log reduction of antimicrobial performance in 300 GSM cotton fabric: 1.83 Log
[4]
  Log reduction of antimicrobial performance in 100 GSM Polyester fabric: 2.19 Log
  Log reduction of antimicrobial performance in 100 GSM cotton fabric: 2.17 Log
  Log reduction of antimicrobial performance in 300 GSM Polyester fabric: 2.20 Log
  Log reduction of antimicrobial performance in 300 GSM cotton fabric: 2.18 Log
[5]
  Log reduction of antimicrobial performance in 100 GSM Polyester fabric: 2.58 Log
  Log reduction of antimicrobial performance in 100 GSM cotton fabric: 2.56 Log
  Log reduction of antimicrobial performance in 300 GSM Polyester fabric: 2.58 Log
  Log reduction of antimicrobial performance in 300 GSM cotton fabric: 2.57 Log
Exhaust 80° C., 60 min, dosage 1% o.w.f (test up to 5% o.w.f)
  Log reduction of antimicrobial performance of each active ingredient: 2.38 Log
Exhaust 80° C., 60 min, dosage 2% o.w.f
  Log reduction of antimicrobial performance of each active ingredient: 2.38 Log
Exhaust 80° C., 60 min, dosage 3% o.w.f
  Log reduction of antimicrobial performance of each active ingredient: 2.41 Log
Exhaust 80° C., 60 min, dosage 4% o.w.f
  Log reduction of antimicrobial performance of each active ingredient: 2.42 Log
Exhaust 80° C., 60 min, dosage 5% o.w.f
  Log reduction of antimicrobial performance of each active ingredient: 2.43 Log
Exhaust 80 ° C., solution dosage 1% o.w.f, process time 10 min
  Log reduction of antimicrobial performance of each active ingredient: 0.78 Log
Exhaust 80 ° C., solution dosage 1% o.w.f, process time 20 min
  Log reduction of antimicrobial performance of each active ingredient: 1.11 Log
Exhaust 80 ° C., solution dosage 1% o.w.f, process time 30 min
  Log reduction of antimicrobial performance of each active ingredient: 1.41 Log
Exhaust 80 ° C., solution dosage 1% o.w.f, process time 40 min
  Log reduction of antimicrobial performance of each active ingredient: 1.84 Log
Exhaust 80 ° C., solution dosage 1% o.w.f, process time 50 min
  Log reduction of antimicrobial performance of each active ingredient: 2.38 Log
Exhaust 80 ° C., solution dosage 1% o.w.f, process time 60 min
  Log reduction of antimicrobial performance of each active ingredient: 2.56 Log
Exhaust 80 ° C., solution dosage 1% o.w.f, process time 70 min
  Log reduction of antimicrobial performance of each active ingredient: 2.58 Log
Exhaust 80 ° C., solution dosage 1% o.w.f, process time 80 min
  Log reduction of antimicrobial performance of each active ingredient: 2.61 Log
Exhaust 80 ° C., solution dosage 1% o.w.f, process time 90 min
  Log reduction of antimicrobial performance of each active ingredient: 2.62 Log
Curing 120° C.
  Performance Test-Log reduction of antimicrobial performance: 0.05 Log
Curing 140° C.
  Performance Test-Log reduction of antimicrobial performance: 0.17 Log
Curing 150° C.
  Performance Test-Log reduction of antimicrobial performance: 0.27 Log
Curing 160° C.
  Performance Test-Log reduction of antimicrobial performance: 0.57 Log

— patent publication US20210254272A1, “TEXTILES HAVING ANTIMICROBIAL PROPERTIES” (Livinguard AG, priority 2015, published 2021)
